The values below come from US20180118648A1, “5-SUBSTITUTED-5-HYDROXY-5-ARYL-3-OXO-PENTANOATE DERIVATIVES AND THEIR ENANTIOPURE FORMS” (OKINAWA INSTITUTE OF SCIENCE AND TECHNOLOGY SCHOOL …, priority 2015, published 2018).

Take `CCOC(=O)/C=C(\C[C@@](O)(c1ccccc1)C(F)(F)F)N[C@H](C)c1ccccc1` [Compound 5a-1, (R)-ethyl 6,6,6,-trifluoro-5-hydroxy-5-phenyl-(((R)-1-phenyl)amino)hex-2-enoate]: the melting point worked out at 126 °C. The value for `CCOC(=O)/C=C(\C[C@@](O)(c1cccs1)C(F)(F)F)N[C@H](C)c1ccccc1` [Compound 5ac-1, (S)-ethyl 6,6,6-trifluoro-5-hydroxy-3-(((R)-1-phenylethyl)amino)-5-(thiophen-2-yl)hexa-2-enoate] was 133 °C.

The melting point is the temperature of the solid-liquid transition.
